ChEMBL document CHEMBL1201861, “Genomics of Drug Sensitity in Cancer screening data, Wellcome Trust Sanger Institute”
pIC50: −log10 of the molar value.

Legend:
T98G = test: cells; type: functional, cell-based; conditions: Homo sapiens;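 further: growth inhibition of T98G cells, read out by a cell viability assay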
Description: SANGER: Inhibition of human T98G cell growth in a cell viability assay.

TUR = test: cells; type: functional, cell-based; conditions: Homo sapiens;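 further: growth inhibition of human TUR cells, read out with a cell viability assay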
Description: SANGER: Inhibition of human TUR cell growth in a cell viability assay.

CAMA-1 = test: cells; type: functional, cell-based; conditions: Homo sapiens;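 further: growth inhibition of CAMA-1 cells, read out with a cell viability assay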
Description: SANGER: Inhibition of human CAMA-1 cell growth in a cell viability assay.

HuP-T4 = test: cells; type: functional, cell-based; conditions: Homo sapiens;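 further: cell viability assay measuring how much HuP-T4 cell growth is inhibited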
Description: SANGER: Inhibition of human HuP-T4 cell growth in a cell viability assay.

PANC-08-13 = test: cells; type: functional, cell-based; conditions: Homo sapiens
Description: SANGER: Inhibition of human PANC-08-13 cell growth in a cell viability assay.

SK-HEP1 = test: cells; type: functional, cell-based, SK-HEP-1; conditions: Homo sapiens;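 further: cell viability readout used to quantify reduction in proliferation of human SK-HEP-1 cells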
Description: SANGER: Inhibition of human SK-HEP-1 cell growth in a cell viability assay.

HCC1806 = test: cells; type: functional, cell-based; conditions: Homo sapiens;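 further: growth inhibition of the cancer cell line, determined with a cell viability assay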
Description: SANGER: Inhibition of human HCC1806 cell growth in a cell viability assay.

NCI-H460 = test: cells; type: functional, cell-based; conditions: Homo sapiens;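 further: cell viability assay scoring growth inhibition of human NCI-H460 cells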
Description: SANGER: Inhibition of human NCI-H460 cell growth in a cell viability assay.

TCC-SUP = test: cells; type: functional, cell-based; conditions: Homo sapiens;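 further: growth inhibition of TCC-SUP cells, read out with a cell viability assay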
Description: SANGER: Inhibition of human TCCSUP cell growth in a cell viability assay.

A204 = test: cells; type: functional, cell-based; conditions: Homo sapiens;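 further: growth inhibition of human A204 cells, read out with a cell viability assay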
Description: SANGER: Inhibition of human A204 cell growth in a cell viability assay.

SW626 = test: cells; type: functional, cell-based; conditions: Homo sapiens;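 further: growth inhibition of SW626 cells, measured with a cell viability assay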
Description: SANGER: Inhibition of human SW626 cell growth in a cell viability assay.

NCI-H719 = test: cells; type: functional, cell-based; conditions: Homo sapiens;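 further: growth inhibition of the cultured cell line, read out with a viability assay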
Description: SANGER: Inhibition of human NCI-H719 cell growth in a cell viability assay.

RPMI-7951 = test: cells; type: functional, cell-based; conditions: Homo sapiens
Description: SANGER: Inhibition of human RPMI-7951 cell growth in a cell viability assay.

THP-1 = test: cells; type: functional, cell-based; conditions: Homo sapiens;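 further: growth inhibition of THP-1 cells, read out via a cell viability assay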
Description: SANGER: Inhibition of human THP-1 cell growth in a cell viability assay.

M14 = test: cells; type: functional, cell-based; conditions: Homo sapiens;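 further: growth inhibition of M14 cells, read out with a cell viability assay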
Description: SANGER: Inhibition of human M14 cell growth in a cell viability assay.

LN-405 = test: cells; type: functional, cell-based; conditions: Homo sapiens
Description: SANGER: Inhibition of human LN-405 cell growth in a cell viability assay.

ABC-1 = test: cells; type: functional, cell-based; conditions: Homo sapiens;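 further: growth inhibition of human ABC-1 cells, read out by a cell viability assay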
Description: SANGER: Inhibition of human ABC-1 cell growth in a cell viability assay.

EHEB = test: cells; type: functional, cell-based; conditions: Homo sapiens;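 further: growth inhibition of human EHEB cells, read out with a cell viability assay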
Description: SANGER: Inhibition of human EHEB cell growth in a cell viability assay.

BFTC-905 = test: cells; type: functional, cell-based; conditions: Homo sapiens
Description: SANGER: Inhibition of human BFTC-905 cell growth in a cell viability assay.

NB12 = test: cells; type: functional, cell-based; conditions: Homo sapiens;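 further: growth inhibition of human NB12 cells, read out by a cell viability assay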
Description: SANGER: Inhibition of human NB12 cell growth in a cell viability assay.

COLO-792 = test: cells; type: functional, cell-based; conditions: Homo sapiens
Description: SANGER: Inhibition of human COLO-792 cell growth in a cell viability assay.

DG-75 = test: cells; type: functional, cell-based; conditions: Homo sapiens;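 further: growth inhibition of DG-75 cells, read out with a cell viability assay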
Description: SANGER: Inhibition of human DG-75 cell growth in a cell viability assay.

BCPAP = test: cells; type: functional, cell-based; conditions: Homo sapiens;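 further: growth inhibition of BCPAP cells, read out in a cell viability assay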
Description: SANGER: Inhibition of human BCPAP cell growth in a cell viability assay.

BPH-1 = test: cells; type: functional, cell-based; conditions: Homo sapiens;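 further: cell viability assay measuring growth inhibition of human BPH-1 cells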
Description: SANGER: Inhibition of human BPH-1 cell growth in a cell viability assay.

NCI-H187 = test: cells; type: functional, cell-based; conditions: Homo sapiens;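 further: growth inhibition of NCI-H187 cells, read out as cell viability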
Description: SANGER: Inhibition of human NCI-H187 cell growth in a cell viability assay.

RPMI-6666 = test: cells; type: functional, cell-based; conditions: Homo sapiens
Description: SANGER: Inhibition of human RPMI-6666 cell growth in a cell viability assay.

RL = test: cells; type: functional, cell-based; conditions: Homo sapiens
Description: SANGER: Inhibition of human RL cell growth in a cell viability assay.

CAL-72 = test: cells; type: functional, cell-based; conditions: Homo sapiens;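 further: cell viability assay measuring inhibition of proliferation in the CAL-72 cell line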
Description: SANGER: Inhibition of human CAL-72 cell growth in a cell viability assay.

UMC-11 = test: cells; type: functional, cell-based; conditions: Homo sapiens;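 further: growth inhibition of UMC-11 cells, read out with a cell viability assay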
Description: SANGER: Inhibition of human UMC-11 cell growth in a cell viability assay.

LCLC-103H cell line = test: cells; type: functional, cell-based; conditions: Homo sapiens
Description: SANGER: Inhibition of human LCLC-103H cell growth in a cell viability assay.

WM-115 = test: cells; type: functional, cell-based; conditions: Homo sapiens
Description: SANGER: Inhibition of human WM-115 cell growth in a cell viability assay.

LP-1 = test: cells; type: functional, cell-based; conditions: Homo sapiens;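 further: growth inhibition of human LP-1 cells, with the read-out taken from a cell viability assay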
Description: SANGER: Inhibition of human LP-1 cell growth in a cell viability assay.

RPMI 8402 = test: SANGER: Inhibition of human RPMI-8402 cell growth in a cell viability assay.; type: functional, cell-based
SW-620 = test: cells; type: functional, cell-based; conditions: Homo sapiens;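 further: growth inhibition of human SW-620 cells, measured by a cell viability assay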
Description: SANGER: Inhibition of human SW620 cell growth in a cell viability assay.

NCI-H716 = test: cells; type: functional, cell-based; conditions: Homo sapiens;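 further: growth inhibition of human NCI-H716 cells, measured by a cell viability assay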
Description: SANGER: Inhibition of human NCI-H716 cell growth in a cell viability assay.

BC1 cell line = test: SANGER: Inhibition of human BC-1 cell growth in a cell viability assay.; type: functional, cell-based
NCI-H520 = test: cells; type: functional, cell-based; conditions: Homo sapiens;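 further: growth inhibition of NCI-H520 cells, measured by a cell viability assay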
Description: SANGER: Inhibition of human NCI-H520 cell growth in a cell viability assay.

DoTc2-4510 = test: cells; type: functional, cell-based; conditions: Homo sapiens
HSC-3 = test: cells; type: functional, cell-based; conditions: Homo sapiens
Description: SANGER: Inhibition of human HSC-3 cell growth in a cell viability assay.

MDA-MB-157 = test: cells; type: functional, cell-based; conditions: Homo sapiens
Description: SANGER: Inhibition of human MDA-MB-157 cell growth in a cell viability assay.

CHL-1 = test: cells; type: functional, cell-based; conditions: Homo sapiens;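 further: cell growth inhibition, read out with a cell viability assay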
Description: SANGER: Inhibition of human CHL-1 cell growth in a cell viability assay.

HN = test: cells; type: functional, cell-based; conditions: Homo sapiens
Description: SANGER: Inhibition of human HN cell growth in a cell viability assay.

SK-LU-1 = test: cells; type: functional, cell-based; conditions: Homo sapiens;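 further: cell viability assay measuring growth inhibition of human SK-LU-1 cells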
Description: SANGER: Inhibition of human SK-LU-1 cell growth in a cell viability assay.

EGI-1 = test: cells; type: functional, cell-based; conditions: Homo sapiens;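 further: cell viability readout used to gauge growth inhibition of EGI-1 cells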
Description: SANGER: Inhibition of human EGI-1 cell growth in a cell viability assay.

CAL-39 = test: cells; type: functional, cell-based; conditions: Homo sapiens;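 further: cell viability assay measuring growth inhibition of CAL-39 cells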
Description: SANGER: Inhibition of human CAL-39 cell growth in a cell viability assay.

J82 = test: cells; type: functional, cell-based; conditions: Homo sapiens;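 further: growth inhibition of J82 cells, read out with a cell viability assay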
Description: SANGER: Inhibition of human J82 cell growth in a cell viability assay.

BHT-101 = test: cells; type: functional, cell-based; conditions: Homo sapiens
Description: SANGER: Inhibition of human BHT-101 cell growth in a cell viability assay.

RD = test: cells; type: functional, cell-based; conditions: Homo sapiens
Description: SANGER: Inhibition of human RD cell growth in a cell viability assay.

GAMG = test: cells; type: functional, cell-based; conditions: Homo sapiens;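 further: cell growth inhibition measured by a viability assay in the GAMG human cell line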
Description: SANGER: Inhibition of human GAMG cell growth in a cell viability assay.

NCI-H1623 = test: cells; type: functional, cell-based; conditions: Homo sapiens;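 further: cell viability assay used as the read-out for growth inhibition of NCI-H1623 cells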
Description: SANGER: Inhibition of human NCI-H1623 cell growth in a cell viability assay.

NCI-H1792 = test: cells; type: functional, cell-based; conditions: Homo sapiens;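 further: growth inhibition of human NCI-H1792 cells, read out as cell viability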
Description: SANGER: Inhibition of human NCI-H1792 cell growth in a cell viability assay.

OVCAR-3 = test: cells; type: functional, cell-based; conditions: Homo sapiens;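 further: growth inhibition of human OVCAR-3 cells, determined by a cell viability assay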
Description: SANGER: Inhibition of human OVCAR-3 cell growth in a cell viability assay.

Detroit 562 = test: cells; type: functional, cell-based; conditions: Homo sapiens;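 further: growth inhibition of human Detroit 562 cells, read out by a cell viability assay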
Description: SANGER: Inhibition of human Detroit562 cell growth in a cell viability assay.

SF-295 = test: cells; type: functional, cell-based; conditions: Homo sapiens;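 further: growth inhibition of SF-295 cells, read out with a cell viability assay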
Description: SANGER: Inhibition of human SF295 cell growth in a cell viability assay.

SW1463 = test: cells; type: functional, cell-based; conditions: Homo sapiens;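 further: growth inhibition of SW1463 cells, determined with a cell viability assay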
Description: SANGER: Inhibition of human SW1463 cell growth in a cell viability assay.

GP5d = test: cells; type: functional, cell-based; conditions: Homo sapiens;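 further: growth inhibition of human GP5d cells, read out with a cell viability assay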
Description: SANGER: Inhibition of human GP5d cell growth in a cell viability assay.

NCI-H64 = test: cells; type: functional, cell-based; conditions: Homo sapiens;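 further: growth inhibition of NCI-H64 cells, read out with a cell viability assay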
Description: SANGER: Inhibition of human NCI-H64 cell growth in a cell viability assay.

SCC-3 = test: cells; type: functional, cell-based; conditions: Homo sapiens;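 further: cell viability assay measuring inhibition of SCC-3 cell growth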
Description: SANGER: Inhibition of human SCC-3 cell growth in a cell viability assay.

M059J = test: cells; type: functional, cell-based; conditions: Homo sapiens;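 further: growth inhibition of M059J cells, read out with a cell viability assay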
Description: SANGER: Inhibition of human M059J cell growth in a cell viability assay.

CAL-148 = test: cells; type: functional, cell-based; conditions: Homo sapiens
Description: SANGER: Inhibition of human CAL-148 cell growth in a cell viability assay.

SW48 = test: cells; type: functional, cell-based; conditions: Homo sapiens;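 further: growth inhibition of SW48 cells, read out with a cell viability assay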
Description: SANGER: Inhibition of human SW48 cell growth in a cell viability assay.

RMG-I = test: cells; type: functional, cell-based; conditions: Homo sapiens;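 further: growth inhibition of human RMG-I cells, read out with a cell viability assay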
Description: SANGER: Inhibition of human RMG-I cell growth in a cell viability assay.

G-401 = test: cells; type: functional, cell-based; conditions: Homo sapiens
Description: SANGER: Inhibition of human G-401 cell growth in a cell viability assay.

SMILES: CC(O)(CS(=O)(=O)c1ccc(F)cc1)C(=O)Nc1ccc(C#N)c(C(F)(F)F)c1 (stereo unspecified) [BICALUTAMIDE]
- pIC50 (T98G): < 5.99
- pIC50 (TUR): < 5.99
- pIC50 (CAMA-1): < 5.99
- pIC50 (HuP-T4): < 5.99
- pIC50 (PANC-08-13): < 5.99
- pIC50 (SK-HEP1): < 5.99
- pIC50 (HCC1806): < 5.99
- pIC50 (NCI-H460): < 5.99
- pIC50 (TCC-SUP): < 5.99
- pIC50 (A204): < 5.99
- pIC50 (SW626): < 5.99
- pIC50 (NCI-H719): < 5.99
- pIC50 (RPMI-7951): < 5.99
- pIC50 (THP-1): < 5.99
- pIC50 (M14): < 5.99
- pIC50 (LN-405): < 5.99
- pIC50 (ABC-1): < 5.99
- pIC50 (EHEB): < 5.99
- pIC50 (BFTC-905): < 5.99
- pIC50 (NB12): < 5.99
- pIC50 (COLO-792): < 5.99
- pIC50 (DG-75): < 5.99
- pIC50 (BCPAP): < 5.99
- pIC50 (BPH-1): < 5.99
- pIC50 (NCI-H187): < 5.99
- pIC50 (RPMI-6666): < 5.99
- pIC50 (RL): < 5.99
- pIC50 (CAL-72): < 5.99
- pIC50 (UMC-11): < 5.99
- pIC50 (LCLC-103H cell line): < 5.99
- pIC50 (WM-115): < 5.99
- pIC50 (LP-1): < 5.99
- pIC50 (RPMI 8402): < 5.99
- pIC50 (SW-620): < 5.99
- pIC50 (NCI-H716): < 5.99
- pIC50 (BC1 cell line): < 5.99
- pIC50 (NCI-H520): < 5.99
- pIC50 (DoTc2-4510): < 5.99
- pIC50 (HSC-3): < 5.99
- pIC50 (MDA-MB-157): < 5.99
- pIC50 (CHL-1): < 5.99
- pIC50 (HN): < 5.99
- pIC50 (SK-LU-1): < 5.99
- pIC50 (EGI-1): < 5.99
- pIC50 (CAL-39): < 5.99
- pIC50 (J82): < 5.99
- pIC50 (BHT-101): < 5.99
- pIC50 (RD): < 5.99
- pIC50 (GAMG): < 5.99
- pIC50 (NCI-H1623): < 5.99
- pIC50 (NCI-H1792): < 5.99
- pIC50 (OVCAR-3): < 5.99
- pIC50 (Detroit 562): < 5.99
- pIC50 (SF-295): < 5.99
- pIC50 (SW1463): < 5.99
- pIC50 (GP5d): < 5.99
- pIC50 (NCI-H64): < 5.99
- pIC50 (SCC-3): < 5.99
- pIC50 (M059J): < 5.99
- pIC50 (CAL-148): < 5.99
- pIC50 (SW48): < 5.99
- pIC50 (RMG-I): < 5.99
- pIC50 (G-401): < 5.99

SMILES: CCNC(=O)c1noc(-c2cc(C(C)C)c(O)cc2O)c1-c1ccc(CN2CCOCC2)cc1 [LUMINESPIB]
- pIC50 (T98G): 7.13
- pIC50 (TUR): 7.11
- pIC50 (CAMA-1): 7.20
- pIC50 (HuP-T4): 7.18
- pIC50 (PANC-08-13): 7.11
- pIC50 (SK-HEP1): 8.47
- pIC50 (HCC1806): 6.95
- pIC50 (NCI-H460): 7.87
- pIC50 (TCC-SUP): < 6.59
- pIC50 (A204): 7.67
- pIC50 (SW626): 7.67
- pIC50 (NCI-H719): < 6.59
- pIC50 (RPMI-7951): 8.20
- pIC50 (THP-1): 6.81
- pIC50 (M14): 6.66
- pIC50 (LN-405): < 6.59
- pIC50 (ABC-1): 7.06
- pIC50 (EHEB): 7.59
- pIC50 (BFTC-905): 8.03
- pIC50 (NB12): 7.02
- pIC50 (COLO-792): 7.05
- pIC50 (DG-75): < 6.59
- pIC50 (BCPAP): 7.58
- pIC50 (BPH-1): 7.99
- pIC50 (NCI-H187): < 6.59
- pIC50 (RPMI-6666): 8.07
- pIC50 (RL): < 6.59
- pIC50 (CAL-72): 6.78
- pIC50 (UMC-11): < 6.59
- pIC50 (LCLC-103H cell line): 8.37
- pIC50 (WM-115): < 6.59
- pIC50 (LP-1): < 6.59
- pIC50 (RPMI 8402): < 6.59
- pIC50 (SW-620): 7.72
- pIC50 (NCI-H716): < 6.59
- pIC50 (BC1 cell line): 7.47
- pIC50 (NCI-H520): 7.57
- pIC50 (DoTc2-4510): 7.67
- pIC50 (HSC-3): 8.19
- pIC50 (MDA-MB-157): < 6.59
- pIC50 (CHL-1): 7.38
- pIC50 (HN): 7.59
- pIC50 (SK-LU-1): 7.73
- pIC50 (EGI-1): 6.75
- pIC50 (CAL-39): 7.85
- pIC50 (J82): 7.52
- pIC50 (BHT-101): 7.23
- pIC50 (RD): 7.58
- pIC50 (GAMG): 7.86
- pIC50 (NCI-H1623): < 6.59
- pIC50 (NCI-H1792): 7.34
- pIC50 (OVCAR-3): 6.85
- pIC50 (Detroit 562): 7.41
- pIC50 (SF-295): 7.76
- pIC50 (SW1463): < 6.59
- pIC50 (GP5d): 7.56
- pIC50 (NCI-H64): < 6.59
- pIC50 (SCC-3): < 6.59
- pIC50 (M059J): 7.65
- pIC50 (CAL-148): 6.61
- pIC50 (SW48): 7.39
- pIC50 (RMG-I): < 6.59
- pIC50 (G-401): 7.99
